For assay [1], the system named is Runx2. The assay can be described thus: 6XOSE/Luc luciferase reporter assay of Runx2 transcriptional activity in MC4 cells. Format: cell-based. As to the method:
Further to examine whether the increased expression of Runx2, which is a transcription factor, affects the expression of other genes regulated by Runx2, the following experiments were performed. For this, MC4 cells were seeded onto each well of a 96 well plate at the concentration of 20,000 cells/well and the cells were transfected with a plasmid 6XOSE/Luc reporter vector (Journal of Biological Chemistry. 285: 3568-3574 (2010)) which expresses luciferase gene under the control of osteocalcin using Lipofectamin® (Life technologies, Inc) according to the manufacturer's instruction. The promoter in the plasmid contains […] to each of which Runx2 binds. By binding of Runx2 to the motif, the expression of luciferase increases. After 16 hrs after the transfection, MDP at the concentration as indicated in FIG. 3 was added to the cells. After 24 hrs, the cells were lysed and the luciferase activity was measured using Luciferase detection kit (Promega, USA) according to the manufacturer's instruction to quantify the mRNA level of osteocalcin gene, which is affected by Runx2.
In addition to MDP as used in Example 2-1, as a derivative thereof, M-TriLYS (MurNAc-Ala-D-isoGln-Lys, N-acetylmuramyl-L-alanine-D-isoglutamine-lysine) and 6-O-stearoyl-N-acetylmuramyl-L-alanyl-D-isoglutamine (L18-MDP) were used to examine the effect of the derivatives on the expression of Runx2 at transcription level. M-TriLYS is a muropeptide obtainable from peptidoglycans of lactobacillus or salivarius and contains in its structure muramyl dipeptide. L18-MDP is a MDP derivative containing C18 fatty acid.
In general terms: A reporter such as luciferase makes a cellular process visible.

In assay [2] the test system is Runx2. The assay can be described thus: RT-PCR of Runx2 mRNA in MC4 cells. It counts as cell-based. As to conditions: 6 hrs, normalized relative to β-actin, FIG. 2 upper part. Here is the method:
Then, total mRNA was extracted from the cells and incubated with random primer at 70° C. for 5 min. After that reverse transcriptase, buffer for RT and dNTPs were added to the reaction mixture and incubated at 42° C. for 1 hr to synthesize cDNA, which was then used as a template for PCR to amplify Runx2 using specific primers as described in Table 1 and using the following condition: cDNA was initially denatured at 94° C. for 5 min followed by 25 cycles at 95° C. for 40 s, 59° C. for 40 s, and 72° C. for 40 s and final extension for 5 min at 72° C. […] The results were normalized relative to β-actin data.

The subject of a further assay is osteoblast. The assay can be described thus: OPG and RANKL regulation in the osteoblast (data not shown). It counts as cell-based.
Assay [3] deals with WT C57BL/6 (B6) mice. Kind of assay: Bone volume of mouse femur by microCT after MDP administration. Format: in vivo. Here is the method:
Six-week-old WT C57BL/6 (B6) mice were purchased from Orient Company Ltd (Seoul, Korea). The animals were maintained at a controlled temperature (21±1° C.) and humidity (55±1%) with a 12/12-h light-dark cycle without any restriction of food and water. All animal experiments were performed following the protocol approved by the Institutional Animal Care and Use Committee of CRISNUH.
(§1) To each mouse, 1.25 mg/kg of MDP prepared as described in Example 1 was administered twice with a 4 day interval by intraperitoneal injection. Physiological saline was used as a control. The second injection was given 4 days after the first injection and after 3 days the mice were sacrificed and used for bone volume analysis.
A right femur was removed from the sacrificed mouse and stripped of the muscle. The excised femur was then fixed in 10% of neutral formalin for one day at the least, which was then analyzed for bone volume using microCT. […] In FIG. 5, BV/TV=Bone volume/Tissue volume=% bone volume.

The test system of assay [4] is mouse model treated with GST-RANKL. The assay can be described thus: GST-RANKL induced bone loss mouse model, microCT bone volume. It counts as in vivo. As to conditions: pretreatment 1.25 mg/kg i.p. twice, then GST-RANKL 1 mg/kg i.p. three times; vs controls not pretreated; FIG. 8. As to the method:
Muramyl dipeptide was administered to a mouse by an intraperitoneal injection two times with four day interval between the administration at the concentration of 1.25 mg/kg. After 3 days of the administration, GST-RANKL recombinant protein was intraperitoneally administered at the concentration of 1 mg/kg three times with a 24 hr interval between the administrations, The bone volume was analyzed at 1 day after the last administrated with GST-RANKL. The recombinant protein was prepared using a RANKL expression vector, pGEX-GST-RANKL (J. Clin Invest. 106:1481-1488 (2000)), which was expressed in E. coli and the protein was purified using a sepharose gel attached with glutathione (glutathione-sepharose gels, Sigma-Aldrich). The purified protein was then treated with Detoxi-gel endotoxin removing gel (Thermo Scientific, USA) to remove endotoxin and used for the experiment. Seven days after the administration, mice were sacrificed and the bone volume was measured using a microCT. As controls, mice treated only with physiological saline, GST-RANKL or physiological saline and GST-RANKL in a consecutive order were used.

For assay [5], the system named is osteoblast cell line MC4 cells (MC3T3-E1 Subclone 4). The assay can be described thus: Osteoblast differentiation by alkaline phosphatase (ALP) staining, MC4 cells. Format: cell-based. As to conditions: 0.1, 1 and 10 μg/ml MDP, 5 days, differentiation medium; FIG. 1. Here is the method:
N-acetylmuramyl-L-Alanyl-D-Isoglutamine commercially available from Invivogen Inc. was dissolved in endotoxin free purified water to make a solution of 5 mg/ml. To assess the effect of muramyl dipeptide on the differentiation of osteoblast, osteoblast cell line MC4 cells (ATCC CRL-2593:MC3T3-E1 Subclone 4) were incubated in an ascorbic acid free-αMEM medium containing 10% fetal bovine serum, 50 unit/ml penicillin, 50 μg/ml streptomycin at 37° C. under 100% humidity and 5% CO2 atmosphere. The medium was changed every 3 days.
Then MC4 cells were seeded onto each well of a 48 well plate at the concentration of 20,000 cells/well and then after 16 hrs, each well was treated for 5 days with 400 μl of 0, 0.1, 1 and 10 μg/ml of MDP as prepared above in the differentiation medium (50 μg/ml ascorbic acid and 10 mM beta-glycerophosphate containing αMEM), during which half of the medium was changed twice with the differentiation medium. The effect on the differentiation was analyzed using alkaline phosphatase (ALP) staining. Results are shown in FIG. 1, in which the effect on the differentiation was determined by the number of cells showing red-purple color as well as the intensity of the color. […] Each experiment was repeated at least 3 times.

Assay [6] relates to RANKL-primed osteoclast precursors. Kind of assay: Osteoclast differentiation from RANKL-primed osteoclast precursors, TRAP staining. Conditions: 20 ng/ml M-CSF, 3 days; FIG. 7 right graph.
Protocol: Bone marrow cells (BMs) were isolated from the long bones of mouse and were cultured in α-MEM supplemented with 10% FBS, 100 U/ml penicillin and 100 μg/ml streptomycin, and 2 ng/ml M-CSF for 1 day. Suspended cells were differentiated into BMMs with 20 ng/ml M-CSF for 3 days. […] To make RANKL-primed osteoclast precursors, the BMMs were stimulated with 20 ng/ml mouse RANKL for 48 h. The BMMs were incubated with 20 ng/ml M-CSF in the presence or absence of MDP for additional 3 days.
The differentiation was determined by tartrate resistant acid phosphatase (TRAP) staining using Leukocyte acid phosphate-staining kit (Sigma-Aldrich Chemical, USA) according to the manufacturer's instruction. After the staining, TRAP-positive multinucleated cells with at least 3 nuclei were enumerated as mature osteoclasts with an inverted phase-contrast microscope and results are shown in FIG. 7.
Assay [7] deals with Runx2. Kind of assay: Immunoblot of Runx2 protein in MC4 cells. Format: cell-based. As to conditions: 24 hrs, β-actin loading control, FIG. 2 lower part. Here is the method:
Also to examine the effect at the protein level, whole cell extract was prepared from the cells treated with MDP for 24 hrs as described above, and 40 μg of extract was used for SDS-PAGE electrophoresis. Then the gel was transferred to a PVDF membrane and immunoblot was performed using an antibody specific to Runx2 (Abcam, USA). […] The β-actin was used as a loading control.
Background: Immunoblotting shows a protein as a band on a membrane.

The subject of assay [8] is WT C57BL/6 (B6) mice. Kind of assay: Histological observation (H&E) of mouse femur. It counts as in vivo. Conditions: 1.25 mg/kg i.p. twice, vs physiological saline control; FIG. 6. Here is the method: as §1
The femur used for the analysis of bone volume in Example 3-3 was used for a histological observation. For this, the femur was demineralized in 10% EDTA for 7 days and washed with running water for 12 hrs in a tissue capsule. After that, the femur was treated with alcohol and xylene and embedded in paraffin, from which sections having a thickness of 4 μm were prepared. The sections were then placed on a slide glass and deparaffinized at 65° C. for 30 min and treated with Hematoxylin and Eosin according to the conventional method.
The slides were then examined with a light microscope to observe the bone formation.

[9] abbreviates: 1.25 mg/kg i.p. twice, vs physiological saline control, FIG. 5.

“6-O-stearoyl-N-acetylmuramyl-L-alanyl-D-isoglutamine [L18-MDP]”: in the assay on Runx2 [1] (FIG. 3B), the “expression of Runx2 at the transcriptional level (reporter)” value (shortened to “expression of Runx2 … (reporter)”) is recorded as “increased the expression of Runx2 at the transcriptional level”. Further, in the assay with Runx2 [1] (higher than that of MDP, FIG. 3B), the “activity on Runx2 compared with MDP” value is listed as 10 times.
In the case of “N-acetylmuramyl-L-Alanyl-D-Isoglutamine [MDP]”, the “mRNA expression of Runx2” value with Runx2 [2] was “increased after MDP treatment in a concentration dependent manner”. For the same substance, the “expression of Runx2 … (reporter)” value in the assay with Runx2 [1] (FIG. 3B) is given as “increased the expression of Runx2 at the transcriptional level”. Further, the “luciferase activity (transcription of osteocalcin, affected by Runx2)” value in the assay with Runx2 [1] (MC4 cells, 24 hrs after addition, FIG. 3A) is listed as “increased the transcription of osteocalcin”. In the assay on osteoblast, the “Osteoprotegerin (OPG) regulation in the osteoblast” value was “up-regulation” and the “RANKL regulation in the osteoblast” value was “down-regulation”. For the same substance, the “indirect effect on osteoclast differentiation” value in the assay with osteoblast (through OPG and RANKL in the osteoblast) was “indirectly alleviated osteoclast differentiation”. Also, the “bone volume (microCT 3D image)” value with WT C57BL/6 (B6) mice [3] (1.25 mg/kg i.p. twice with 4 day interval, right femur, vs physiological saline, FIG. 4) is “increase in bone volume”. Further, in the assay on WT C57BL/6 (B6) mice [3] (setting [9]), the “Trabecular bone volume (BV/TV)” value is reported as “increased statistically significantly”, the “Trabecular number (Tb.N)” value is listed as “increased statistically significantly” and the “Trabecular thickness (Tb.Th)” value is recorded as “increased statistically significantly”. The “bone loss due to GST-RANKL (bone volume, microCT)” value in assay [4] is “reduced”. For the same substance, in assay [5], the “differentiation of MC4 (ALP staining)” value is “increased in a concentration dependent manner”. The “osteoclast differentiation from RANKL-primed osteoclast precursors” value in assay [6] is given as “did not affect”. In the assay with Runx2 [7], the “expression of Runx2 protein” value was “increased the expression of Runx2 protein”. Besides, the “spongy bone in femur sections (H&E)” value with WT C57BL/6 (B6) mice [8] is listed as “more spongy bone was observed”.
“N-acetylmuramyl-L-alanine-D-isoglutamine-lysine [MTnLYS]”: the “expression of Runx2 … (reporter)” value in the assay on Runx2 [1] (FIG. 3B) is reported as “increased the expression of Runx2 at the transcriptional level”.

(Values after patent US9884084B2, “Bone loss preventing and bone regeneration or bone formation promoting pharmaceutical composition comprising muramyl dipeptide” (SNU R&DB FOUNDATION, priority 2012, dated 2018).)
